Test results: BindingDB's records for doi:10.1016/S0960-894X(01)80999-9 (1993)

Columns and labels:
[1] = In vitro antagonistic activity towards LTB4 receptor was evaluated by inhibition of binding of [3H]LTB4 to human neutrophils
[2] = molecular target: Leukotriene B4 receptor (Cavia porcellus); assay: Compound was evaluated for inhibition of binding of [3H]LTB4 to LTB4 receptor in guinea-pig lung membranes

Row | Ki [1] [nM] | Ki [2] [nM] | Structure (SMILES)
1 | 6.8 | – | CCc1cc(C(C)=O)c(O)cc1OCCCOc1ccc(C(=O)c2cccc(C(=O)O)c2)cc1CCC(=O)O [3-[2-[3-(4-acetyl-2-ethyl-5-olatophenoxy)propoxy]-5-(3-carboxylatobenzoyl)phenyl]propanoate]
2 | 7.8 | – | COc1ccc(/C=C/CCCCOc2ccc(C(=O)c3cccc(C(=O)O)c3)cc2CCC(=O)O)cc1 [(Z)-3-{3-(2-Carboxy-ethyl)-4-[6-(4-methoxy-phenyl)-hex-5-enyloxy]-benzoyl}-benzoic acid]
3 | – | 45 | COc1ccc(/C=C/CCCCOc2ccc3c(=O)c4cc(C(=O)O)ccc4oc3c2CCC(=O)O)cc1 [LY-210073]
4 | 751 | – | CCc1cc(C(C)=O)c(O)cc1OCCCOc1ccc2c(=O)c3cc(C(=O)O)ccc3oc2c1 [disodium 6-[3-(4-acetyl-2-ethyl-5-olatophenoxy)propoxy]-9-oxo-9H-2-xanthenecarboxylate]
